Laboratory results from paper PMC7328663, “Agonist-specific desensitization of PGE2-stimulated cAMP signaling due to upregulated phosphodiesterase expression in human lung fibroblasts” (Naunyn-Schmiedeberg's archives of pharmacology, 2019).
Values joined by “and” are separate entries in the source; they are usually repeats but may differ in a detail not shown here. Identical values can stand only once.

Assays:
PDE = PDE activity assays in HFL-1 cell lysates ([3H]cAMP hydrolysis); assay type: biochemical, human; conditions: for PDE activity in lysates in presence of inhibitor: roflumilast 1 μM or IBMX 1 mM in the assay, vehicle-, PGE2- and isoproterenol-pretreated cells, Fig. 6d; for bulk PDE activity vs vehicle: cells treated 24 h with 30 μM forskolin, 100 nM PGE2 or 1 μM isoproterenol, Fig. 6c
HFL-1 cells [1] = experiment: cADDis assay for cAMP (fluorescent biosensor) in HFL-1 fibroblasts; assay type: cell-based, human; conditions: for leftward shift of PGE2 concentration-response curve (reversal of desensitization) by PDE inhibitor: 10 μM inhibitor, 10 min, Fig. 7a–c; for desensitization of PGE2 cAMP responses by pretreatment: 24 h pretreatment with 100 nM isoproterenol or 1 μM forskolin, Fig. 2a, Fig. 3; for rightward shift of PGE2 responses induced by pretreatment: 24 h pretreatment with 100 nM of the agonist vs vehicle, Fig. 5b, n = 4; for desensitization of β-AR (isoproterenol) cAMP responses by pretreatment: 24 h pretreatment with 100 nM PGE2 or 100 nM isoproterenol, Fig. 1d; for EC50: Homo sapiens, HFL1; for PGE2 maximal response: normalized to 1 μM forskolin plus 200 μM IBMX, Fig. 4 experiments
Method: HFL-1 fibroblasts (ATCC, Manassas, VA, USA) were grown in Ham’s F12K medium (Thermo Fisher Scientific, Waltham, MA, USA) with 10% fetal bovine serum (Atlanta Biologicals, Flowery Branch, GA, USA) and 1% antibiotic-antimycotic solution. Cells with a passage number of 13 to 25 were used and were grown to 70–90% confluency for all studies. Cells were grown in an incubator at 37 °C and 5% CO2 levels. Medium was aspirated and cells were washed once with PBS. After aspiration of PBS, 5 mL of 0.25% trypsin-EDTA (Thermo Fisher Scientific, Waltham, MA, USA) was added for 5 min to induce cell detachment. Media was added to the flask and gently mixed to suspend detached cells, transferred to tubes, centrifuged at 500g for 5 min, then washed to remove trypsin. The cell pellet was resuspended in growth medium, and approximately 9000 sells were plated per well on 96-well plates. Cells were pretreated with PGE2, other drugs, or vehicle prior to experiments by adding 10× concentration of drug to growth media. Medium was aspirated after 24 h, and each well was washed once with warm Dulbecco’s phosphate-buffered saline before performing cADDis assay for cAMP.
The cADDis assay was purchased from Montana Molecular (Bozeman, MT, USA). HFL-1 cells were incubated with a recombinant mammalianized baculovirus (BacMam) engineered to express a genetically modified protein that is a fusion of EPAC, a cAMP effector, with the green fluorescent protein (GFP). This protein serves as a convenient and quantitative cAMP sensor. In its unbound form, the protein fluoresces, but its fluorescence is quenched upon binding of cAMP. When seeding the cells in a 96-well plate, the following components were added: […] of cells plus media, 40 μL BacMam solution, and 2 μL of trichostatin A (an inhibitor of histone deacetylase) (Sigma®, St. Louis, MO, USA). In the 96-well plate format, approximately 8900 cells were seeded per well and 2.95 × 10^8 viral particles per well were added. Trichostatin A stock concentration was 100 μM, giving a final concentration of 1 μM in the final volume of 200 μL per well. Transduced HFL-1 cells were incubated for 24 h at 37 °C and 5% CO2 levels. After incubation, medium was aspirated and replaced with 180 μL per well of 1× Dulbecco’s phosphate-buffered saline without calcium and magnesium (Thermo Fisher Scientific, Waltham, MA, USA). The 96-well plate was then covered with aluminum foil and incubated at 37 °C for 30 min. The plate was placed in a SpectraMax M5 plate reader (Molecular Devices, San Jose, CA, USA), and fluorescence was read from the bottom of the plate with an excitation wavelength of 494 nm and an emission wavelength of 522 nm for 5 min. Once variability of fluorescence was ≤ 5% in all wells, different concentrations ofPGE2 or other agents were added with a multi-pipette and the changes in fluorescence were measured every 30 s for 30 min.
Data from kinetic studies of fluorescence were normalized to the original level of fluorescence (ΔF/F0) and then fit to a single-site decay model using GraphPad Prism 7.0 (GraphPad Software Inc., San Diego, CA, USA). The plateau of each decay curve was then used as the maximal response to that given concentration of drug (Emax), and concentration-response curves were generated using nonlinear regression analysis (log [agonist] vs. response, variable slope, four parameters) using GraphPad Prism 7.0. Concentration-response curves in multiple conditions were compared using two-way analysis of variance (2-way ANOVA) with Tukey’s multiple comparison test, and significance (p value) is reported for the effect of different conditions. Statistical comparison tests (t tests, 1-way and 2-way ANOVA) were performed using GraphPad Prism.

PDE3A = experiment: qRT-PCR of PDE3A mRNA after 24 h pretreatment; assay type: cell-based, human; conditions: 24 h pretreatment: 1 μM forskolin, 100 nM isoproterenol or 100 nM PGE2; Fig. 6a
Method: (§1) After 48-h incubation with the lentivirus, medium was aspirated, cells were washed once in 1× PBS, and buffer RLT was added to disrupt cell membranes. Cells were collected and RNA was isolated using RNeasy columns with a QIAcube robot (Qiagen). RNA was quantified using the NanoDrop 2000/2000c (Thermo Fisher). Reverse transcription was performed on 400 ng of RNA samples. All steps followed the SuperScript® III First-Strand Synthesis System for RT-PCR protocol (Thermo Fisher). The steps included a denaturation step at 65 °C for 5 min in the RNA/primer mixture, containing 50 ng/μL of random hexamers. Complementary DNA (cDNA) synthesis mixture was added to the RNA/primer mixture and incubated for 10 min at 25 °C, followed by 50 min at 50 °C. The reaction was terminated at 85 °C for 5 min, then chilled on ice. Finally, 1 μL of RNase H was added to each tube followed by incubation for 20 min at 37 °C. cDNA samples were either used immediately for quantitative reverse transcription polymerase chain reaction (qRT-PCR) experiments or stored at − 20 °C.
(§2) TaqMan® Gene Expression Assays (Thermo Fisher) were used for qRT-PCR reactions. The ratio of components for each reaction was as follows: 1 μL 20× TaqMan® Gene Expression Assay, 10 μL 2× TaqMan® Gene Expression Mater Mix, 4 μL cDNA (1 ng to 100 ng), and 5 μL of RNase-free water. The thermal cycler settings were as follows: step 1, 50 °C for 2 min; step 2, 95 °C for 10 min; step 3, 95 °C for 15 s; and step 4, 60 °C for 1 min. Steps 3 and 4 were repeated for a total of 40 cycles. The housekeeping genes GAPDH, β-actin, and CDKN1A were used to normalize for differences in RNA samples. PCR data were analyzed using the 2^[−ΔΔCt] method, where Ct is the cycle threshold.

PDE3B = experiment: qRT-PCR of PDE3B mRNA after 24 h pretreatment; assay type: cell-based, human; conditions: 24 h pretreatment: 1 μM forskolin, 100 nM isoproterenol or 100 nM PGE2; Fig. 6a
Method: as §1, §2

PDE4B = experiment: qRT-PCR of PDE4B mRNA after 24 h pretreatment; assay type: cell-based, human; conditions: 24 h pretreatment: 1 μM forskolin, 100 nM isoproterenol or 100 nM PGE2; Fig. 6a
Method: as §1, §2

PDE4D = experiment: qRT-PCR of PDE4D mRNA after 24 h pretreatment; assay type: cell-based, human; conditions: 24 h pretreatment: 1 μM forskolin, 100 nM isoproterenol or 100 nM PGE2; Fig. 6a
Method: as §1, §2

HFL-1 cells [2] = experiment: Assay of basal cAMP (EIA of TCA extracts); assay type: cell-based, human; conditions: cells pretreated with 100 nM PGE2 for 24 h; not significant vs vehicle (p = 0.815)
Method: HFL-1 cells were washed three times with serum- and NaHCO3-free DMEM supplemented with 20 mM HEPES, pH 7.4 (DMEH), then incubated for 30 min at 37 °C. Medium was aspirated, and 250 μL of trichloroacetic acid (TCA, 7.5% w/v) was added to each well. cAMP content in TCA extracts was determined by EIA (Cayman Chemical) following the manufacturer’s instructions. The amount of cAMP was normalized to the amount of protein per sample as determined using a dye-binding protein assay (Bio-Rad).

EP2R = experiment: qRT-PCR of EP2R mRNA after 24 h pretreatment; assay type: cell-based, human; conditions: 24-h pretreatment with 100 nM PGE2; Fig. 6a
Method: TaqMan® Gene Expression Assays (Thermo Fisher) were used for qRT-PCR reactions. […] PCR data were analyzed using the 2^[−ΔΔCt] method, where Ct is the cycle threshold.

[3] = cells pretreated with 100 nM PGE2 for 24 h
[4] = acute cAMP increase, no pretreatment, Fig. 5a

Q: How did the “PDE activity in lysates in presence of inhibitor” value (PDE) turn out when `O=C(Nc1c(Cl)cncc1Cl)c1ccc(OC(F)F)c(OCC2CC2)c1` [roflumilast] was run?
A: The value was “significantly reduced PDE activity”.

Q: `O=C1CCc2cc(OCCCCc3nnnn3C3CCCCC3)ccc2N1` [cilostazol] was tested. Which “leftward shift of PGE2 concentration-response curve (reversal of desensitization) by PDE inhibitor” value (HFL-1 cells [1]; [3]) did it give?
A: The value was “had no effect”.

Q: What does the source list for `CC(C)Cn1c(=O)n(C)c(=O)c2[nH]cnc21` [IBMX, 3-isobutyl-1-methylxanthine]?
A: leftward shift of PGE2 concentration-response curve (reversal of desensitization) by PDE inhibitor (HFL-1 cells [1]; [3]): small leftward shift that was not statistically significant; PDE activity in lysates in presence of inhibitor (PDE): significantly reduced PDE activity

Q: How did the “desensitization of PGE2 cAMP responses by pretreatment” value (HFL-1 cells [1]) turn out when `C=C[C@@]1(C)CC(=O)[C@]2(O)[C@@]3(C)[C@@H](O)CCC(C)(C)[C@@H]3[C@H](O)[C@H](OC(C)=O)[C@@]2(C)O1` [forskolin] was run?
A: The value was “did not cause desensitization of PGE2 responses”.

Q: What about the “PDE3A mRNA expression, fold change over vehicle” value (PDE3A) of the same compound?
A: Its value is “no effect”.

Q: What about the “PDE3B mRNA expression” value (PDE3B) of the same compound?
A: Its value is “Significant upregulation”.

Q: And the “PDE4B mRNA expression, fold change over vehicle” value (PDE4B)?
A: The value was 3.9 fold.

Q: And the “PDE4D mRNA expression, fold change over vehicle” value (PDE4D)?
A: Its value is 7.9 fold.

Q: What about the “bulk PDE activity vs vehicle” value (PDE) of the same compound?
A: The value was “significantly increased PDE activity”.

Q: How did the “leftward shift of PGE2 concentration-response curve (reversal of desensitization) by PDE inhibitor” value (HFL-1 cells [1]; [3]) turn out when `COc1ccc(C2CNC(=O)C2)cc1OC1CCCC1` (stereo not drawn) [rolipram] was run?
A: Its value is 2.8 fold.

Q: What about the “effect on isoproterenol cAMP responses” value (HFL-1 cells [1]; 10 μM rolipram, cells pretreated with 100 nM PGE2 for 24 h, Fig. 7d) of the same compound?
A: Its value is “had no effect”.

Q: With `CCOc1c2c(c(OCC)c3ccccc13)C(=O)N(c1ccc(CC(=O)NS(=O)(=O)c3ccccc3)cc1)C2` [GW-627368X] as the compound, how does the “shift of PGE2 concentration-response curve by antagonist” value (HFL-1 cells [1]; antagonist 100 nM, cells pretreated with 100 nM PGE2 for 24 h, Fig. 4) read?
A: The value was “did not”.

Q: What about the “rightward shift of PGE2 concentration-response curve by antagonist” value (HFL-1 cells [1]; antagonist 100 nM, vehicle-pretreated cells) of the same compound?
A: The value was “did not cause a rightward shift”.

Q: Which “rightward shift of PGE2 responses induced by pretreatment” value (HFL-1 cells [1]) does the source give for `C=CCC1([C@@H](O)C/C=C/[C@@H]2[C@@H](C/C=C\CCCC(=O)O)[C@H](Cl)C[C@H]2O)CCC1` [ONO-AE1–259] here?
A: The value was 4.0 ± 1.2 fold and 4 fold.

Q: And the “log EC50” value (HFL-1 cells [1]; [4])?
A: The value was −8.29.

Q: Which “desensitization of β-AR (isoproterenol) cAMP responses by pretreatment” value (HFL-1 cells [1]; Fig. 2b) does the source give for `CC(C)NCC(O)c1ccc(O)c(O)c1` (stereo not drawn) [isoproterenol] here?
A: Its value is “induces desensitization of β-AR responses”.

Q: What about the “desensitization of PGE2 cAMP responses by pretreatment” value (HFL-1 cells [1]) of the same compound?
A: The value was “does not decrease responses to PGE2”.

Q: What about the EC50 (HFL-1 cells [1]; acute isoproterenol cAMP response, 24 h pretreatment with 100 nM isoproterenol, Fig. 2b) of the same compound?
A: The EC50 was 2.24 nM.

Q: What about the “PDE3A mRNA expression, fold change over vehicle” value (PDE3A) of the same compound?
A: Its value is “no effect”.

Q: And the “PDE3B mRNA expression” value (PDE3B)?
A: The value was “Significant upregulation”.

Q: And the “PDE4B mRNA expression, fold change over vehicle” value (PDE4B)?
A: Its value is 1.3 fold.

Q: And the “PDE4D mRNA expression, fold change over vehicle” value (PDE4D)?
A: Its value is 5.0 fold.

Q: And the “bulk PDE activity vs vehicle” value (PDE)?
A: The value was “does not”.

Q: Which results are given for `CCCCC[C@H](O)/C=C/[C@H]1[C@H](O)CC(=O)[C@@H]1C/C=C\CCCC(=O)O` [PGE2, prostaglandin E2]?
A: desensitization of β-AR (isoproterenol) cAMP responses by pretreatment (HFL-1 cells [1]; Fig. 2b): does not cause desensitization; rightward shift of PGE2 responses induced by pretreatment (HFL-1 cells [1]): 8.0 ± 2.2 fold; EC50 (HFL-1 cells [1]; acute PGE2 cAMP response, 24 h vehicle pretreatment, Table 1/Fig. 1c, mean ± SEM n = 3–10): 39.8 nM; EC50 (HFL-1 cells [1]; [4]): 3.31 nM; PGE2 maximal response (HFL-1 cells [1]; PGE2-pretreated cells (100 nM, 24 h)): 0.60 ± 0.09; Emax (HFL-1 cells [1]; PGE2 response after 24 h pretreatment with 1, 10 or 100 nM PGE2 vs vehicle): None of the pretreatment conditions produced a significant reduction; PGE2 maximal response (HFL-1 cells [1]; vehicle-pretreated cells): 1.06 ± 0.10; basal cAMP level (HFL-1 cells [2]): 57.9 ± 13.8 fmol/mg protein; PDE3A mRNA expression, fold change over vehicle (PDE3A): 7.3 fold; PDE3B mRNA expression (PDE3B): Significant upregulation; PDE4B mRNA expression, fold change over vehicle (PDE4B): 2.6 fold; PDE4D mRNA expression, fold change over vehicle (PDE4D): 22.3 fold; EP2R mRNA levels (EP2R): did not observe any change; bulk PDE activity vs vehicle (PDE): significantly increased PDE activity; bulk PDE activity vs vehicle, time course (PDE; cells treated with 100 nM PGE2 from 5 min to 24 h, after 6 h or more): significant increases
